The compounds below were run against T1, FXR (Homo sapiens, UniProt Q96RI1) (assay: In Vitro FXR Assay (TK): TK-ECRE-luc reporter in transfected CV-1 cells). Conditions: CV-1 cells transfected with hFXR, hRXR, 18 h incubation, luminescence.
T1 construct: expressed in transfected cells; host or cells: CV-1 cells
T1 sequence (Q96RI1 1-486): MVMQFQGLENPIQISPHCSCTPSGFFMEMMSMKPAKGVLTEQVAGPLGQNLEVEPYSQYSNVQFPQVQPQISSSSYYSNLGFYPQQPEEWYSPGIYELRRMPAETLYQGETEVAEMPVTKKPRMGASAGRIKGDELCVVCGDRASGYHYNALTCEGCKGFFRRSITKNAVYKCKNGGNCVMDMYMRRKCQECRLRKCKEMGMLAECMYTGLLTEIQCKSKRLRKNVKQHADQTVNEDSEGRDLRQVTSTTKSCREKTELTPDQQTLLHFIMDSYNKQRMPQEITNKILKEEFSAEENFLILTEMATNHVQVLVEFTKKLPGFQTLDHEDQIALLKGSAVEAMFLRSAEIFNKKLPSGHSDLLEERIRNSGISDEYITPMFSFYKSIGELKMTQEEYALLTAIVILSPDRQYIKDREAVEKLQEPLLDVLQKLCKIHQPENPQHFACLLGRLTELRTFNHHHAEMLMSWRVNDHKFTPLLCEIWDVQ
T1 sequence (P19793 1-462 partner): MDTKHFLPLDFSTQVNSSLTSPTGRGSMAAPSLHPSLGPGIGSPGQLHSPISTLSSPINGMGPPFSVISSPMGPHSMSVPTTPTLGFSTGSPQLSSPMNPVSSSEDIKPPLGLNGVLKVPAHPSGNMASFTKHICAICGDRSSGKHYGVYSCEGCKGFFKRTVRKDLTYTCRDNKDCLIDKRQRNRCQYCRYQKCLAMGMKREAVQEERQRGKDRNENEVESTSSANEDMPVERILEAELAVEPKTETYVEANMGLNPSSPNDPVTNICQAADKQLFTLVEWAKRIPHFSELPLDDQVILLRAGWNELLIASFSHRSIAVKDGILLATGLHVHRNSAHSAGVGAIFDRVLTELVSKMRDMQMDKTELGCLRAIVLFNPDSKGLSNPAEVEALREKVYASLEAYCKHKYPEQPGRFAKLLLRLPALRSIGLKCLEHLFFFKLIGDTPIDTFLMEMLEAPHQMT
Type: cell-based
Method: Example B-2: In Vitro FXR Assay (TK)
CV-1 cells were seeded at a density of 2,000,000 cells in a T175 flask with DMEM+10% charcoal double-stripped FBS and incubated at 37° C. in 5% CO2 for 18 h (O/N).
After 18 h of incubation, the medium in the T175 flask was changed with fresh DMEM+10% charcoal super-stripped serum. In a polypropylene tube, 2500 μL OptiMEM (Life Technologies, Cat #31985-062) was combined with expression plasmids for hFXR, hRXR, TK-ECRE-luc and pCMX-YFP. The tube was then briefly vortexed and incubated at room temperature for 5 minutes. Transfection reagent (X-tremeGENE HP from Roche, Cat #06 366 236 001) was added to the OptiMEM/plasmid mixture vortexed and incubated at room temperature for 20 minutes. Following incubation, the transfection reagent/DNA mixture complex was added to cells in the T175 flask and the cells were incubated at 37° C. in 5% CO2 for 18 h (O/N).
Compounds were serially diluted in DMSO and added to transfected CV-1 cells. The cells were then incubated for 18 hrs. The next day cells were lysed and examined for luminescence.
`COC(=O)/C=C/c1cccc(N(Cc2ccc(-c3ccc(OC)c(C)c3)cc2)C(=O)C2CCN(S(C)(=O)=O)CC2)c1` [62.17, (E)-Methyl 3-(3-(N-((4′-methoxy-3′-methyl-[1,1′-biphenyl]-4-yl)methyl)-1-(methylsulfonyl)piperidine-4-carboxamido)phenyl)acrylate] showed an EC50 of 1 to 10 µM.
`COC(=O)/C=C/c1cccc(N(Cc2ccc(-c3ccc4c(c3)nnn4C)cc2)C(=O)C2CCCCC2)c1` [75.1, (E)-Methyl 3-(3-(N-(4-(1-methyl-1H-benzo[d][1,2,3]triazol-5-yl)benzyl)cyclohexanecarboxamido)phenyl) acrylate] gave an EC50 of 1 to 10 µM.
Compound `COC(=O)/C=C/c1cccc(N(Cc2ccc(-c3ccc(N4CCC4)cc3)cc2)C(=O)C2CCCCC2)c1` [75.2, (E)-Methyl 3-(3-(N-((4′-(azetidin-1-yl)-[1,1′-biphenyl]-4-yl)methyl)cyclohexanecarboxamido)phenyl) acrylate] has an EC50 of 1 to 10 µM.
Work on `COC(=O)/C=C/c1cccc(N(Cc2ccc(-c3cnc(N(C)C)nc3)cc2)C(=O)C2CCCCC2)c1` [75.3, (E)-Methyl 3-(3-(N-(4-(2-(dimethylamino)pyrimidin-5-yl)benzyl)cyclohexanecarboxamido)phenyl) acrylate] yielded an EC50 of no more than 1 µM.
In the case of `COC(=O)/C=C/c1cccc(N(Cc2ccc(-c3cnc(N(C)C)cn3)cc2)C(=O)C2CCCCC2)c1` [75.4, (E)-Methyl 3-(3-(N-(4-(5-(dimethylamino)pyrazin-2-yl)benzyl)cyclohexanecarboxamido)phenyl) acrylate], the EC50 is reported as 1 to 10 µM.
`COC(=O)/C=C/c1cccc(N(Cc2ccc(-c3ccc(N(C)C)nn3)cc2)C(=O)C2CCCCC2)c1` [75.5, (E)-Methyl 3-(3-(N-(4-(6-(dimethylamino)pyridazin-3-yl)benzyl)cyclohexanecarboxamido)phenyl) acrylate] showed an EC50 of 1 to 10 µM.
`COC(=O)/C=C/c1cccc(N(Cc2ccc(-c3ccc(N(C)S(C)(=O)=O)cc3)cc2)C(=O)C2CCCCC2)c1` [75.6, (E)-Methyl 3-(3-(N-((4′-(N-methylmethylsulfonamido)-[1,1′-biphenyl]-4-yl)methyl)cyclohexanecarboxamido)phenyl) acrylate] gave an EC50 of 1 to 10 µM.
For `COC(=O)/C=C/c1cccc(N(Cc2ccc(-c3ccc(S(C)(=O)=O)c(F)c3)cc2)C(=O)C2CCCCC2)c1` [75.7, (E)-Methyl 3-(3-(N-((3′-fluoro-4′-(methylsulfonyl)-[1,1′-biphenyl]-4-yl)methyl)cyclohexanecarboxamido)phenyl) acrylate], the EC50 was greater than 10 µM.
For `COC(=O)/C=C/c1cccc(N(Cc2ccc(-c3ccc(S(C)(=O)=O)cc3F)cc2)C(=O)C2CCCCC2)c1` [75.8, (E)-Methyl 3-(3-(N-((2′-fluoro-4′-(methylsulfonyl)-[1,1′-biphenyl]-4-yl)methyl)cyclohexanecarboxamido)phenyl) acrylate], the EC50 was 1 to 10 µM.
With `COC(=O)/C=C/c1cccc(N(Cc2ccc(-c3ccc4ncsc4c3)cc2)C(=O)C2CCCCC2)c1` [75.9, (E)-Methyl 3-(3-(N-(4-(benzo[d]thiazol-6-yl)benzyl)cyclohexanecarboxamido)phenyl) acrylate] the EC50 was 1 to 10 µM.
`COC(=O)/C=C/c1cccc(N(Cc2ccc(-c3ccc(S(C)(=O)=O)c(Cl)c3)cc2)C(=O)C2CCCCC2)c1` [75.10, (E)-Methyl 3-(3-(N-((3′-chloro-4′-(methylsulfonyl)-[1,1′-biphenyl]-4-yl)methyl)cyclohexanecarboxamido)phenyl) acrylate] was tested, and the EC50 was greater than 10 µM.
Compound `COC(=O)/C=C/c1cccc(N(Cc2ccc(-c3ccc4ocnc4c3)cc2)C(=O)C2CCCCC2)c1` [75.11, (E)-Methyl 3-(3-(N-(4-(benzo[d]oxazol-5-yl)benzyl)cyclohexanecarboxamido)phenyl) acrylate] has an EC50 of 1 to 10 µM.
Work on `COC(=O)/C=C/c1cccc(N(Cc2ccc(-c3ccc4ncoc4c3)cc2)C(=O)C2CCCCC2)c1` [75.12, (E)-Methyl 3-(3-(N-(4-(benzo[d]oxazol-6-yl)benzyl)cyclohexanecarboxamido)phenyl) acrylate] yielded an EC50 of 1 to 10 µM.
In the case of `COC(=O)/C=C/c1cccc(N(Cc2ccc(-c3ccc4cnoc4c3)cc2)C(=O)C2CCCCC2)c1` [75.13, (E)-Methyl 3-(3-(N-(4-(benzo[d]isoxazol-6-yl)benzyl)cyclohexanecarboxamido)phenyl) acrylate], the EC50 is reported as greater than 10 µM.
`COC(=O)/C=C/c1cccc(N(Cc2ccc(-c3ccc4scnc4c3)cc2)C(=O)C2CCCCC2)c1` [75.14, (E)-Methyl 3-(3-(N-(4-(benzo[d]thiazol-5-yl)benzyl)cyclohexanecarboxamido)phenyl) acrylate] was tested, and the EC50 was no more than 1 µM.
In the case of `COC(=O)/C=C/c1cccc(N(Cc2ccc(-c3ccc4oncc4c3)cc2)C(=O)C2CCCCC2)c1` [75.15, (E)-Methyl 3-(3-(N-(4-(benzo[d]isoxazol-5-yl)benzyl)cyclohexanecarboxamido)phenyl) acrylate], the EC50 is reported as greater than 10 µM.
`COC(=O)/C=C/c1cccc(N(Cc2ccc(-c3ccc4cnsc4c3)cc2)C(=O)C2CCCCC2)c1` [75.16, (E)-Methyl 3-(3-(N-(4-(benzo[d]isothiazol-6-yl)benzyl)cyclohexanecarboxamido)phenyl) acrylate] showed an EC50 of 1 to 10 µM.
With `COC(=O)/C=C/c1cccc(N(Cc2ccc(-c3ccc4sncc4c3)cc2)C(=O)C2CCCCC2)c1` [75.17, (E)-Methyl 3-(3-(N-(4-(benzo[d]isothiazol-5-yl)benzyl)cyclohexanecarboxamido)phenyl) acrylate] the EC50 was 1 to 10 µM.
`COC(=O)/C=C/c1cccc(N(Cc2ccc(-c3ccc4c(c3)c(F)nn4C)cc2)C(=O)C2CCCCC2)c1` [75.18, (E)-Methyl 3-(3-(N-(4-(3-fluoro-1-methyl-1H-indazol-5-yl)benzyl)cyclohexanecarboxamido)phenyl) acrylate] showed an EC50 of no more than 1 µM.
In the case of `COC(=O)/C=C/c1cccc(N(Cc2ccc(-c3ccc4c(C)nsc4c3)cc2)C(=O)C2CCCCC2)c1` [75.19, (E)-Methyl 3-(3-(N-(4-(3-methylbenzo[d]isothiazol-6-yl)benzyl)cyclohexanecarboxamido)phenyl) acrylate], the EC50 is reported as no more than 1 µM.
Work on `CN(C)c1ccc(-c2ccc(CN(C(=O)C3CCCCC3)c3cccc(/C=C/C(=O)OC4CCCCC4)c3)cc2)cc1` [86.1, (E)-Cyclohexyl 3-(3-(N-((4′-(dimethylamino)-[1,1′-biphenyl]-4-yl)methyl)cyclohexanecarboxamido)phenyl) acrylate] yielded an EC50 greater than 10 µM.
In the case of `CC(C)COC(=O)/C=C/c1cccc(N(Cc2ccc(-c3ccc(N(C)C)cc3)cc2)C(=O)C2CCCCC2)c1` [86.2, (E)-Isobutyl 3-(3-(N-((4′-(dimethylamino)-[1,1′-biphenyl]-4-yl)methyl)cyclohexanecarboxamido)phenyl) acrylate], the EC50 is reported as greater than 10 µM.
With `COCCOC(=O)/C=C/c1cccc(N(Cc2ccc(-c3ccc(N(C)C)cc3)cc2)C(=O)C2CCCCC2)c1` [86.3, (E)-2-Methoxyethyl 3-(3-(N-((4′-(dimethylamino)-[1,1′-biphenyl]-4-yl)methyl)cyclohexanecarboxamido)phenyl) acrylate] the EC50 was 1 to 10 µM.
With `CN(C)CCOC(=O)/C=C/c1cccc(N(Cc2ccc(-c3ccc(N(C)C)cc3)cc2)C(=O)C2CCCCC2)c1` [86.4, (E)-2-(Dimethylamino)ethyl 3-(3-(N-((4′-(dimethylamino)-[1,1′-biphenyl]-4-yl)methyl)cyclohexanecarboxamido)phenyl) acrylate] the EC50 was greater than 10 µM.
With `CN(C)c1ccc(-c2ccc(CN(C(=O)C3CCCCC3)c3cccc(/C=C/C(=O)OCC4CCCO4)c3)cc2)cc1` (centres unmarked) [86.5, (E)-(Tetrahydrofuran-2-yl) methyl 3-(3-(N-((4′-(dimethylamino)-[1,1′-biphenyl]-4-yl)methyl)cyclohexanecarboxamido)phenyl) acrylate] the EC50 was greater than 10 µM.
`CN(C)c1ccc(-c2ccc(CN(C(=O)C3CCCCC3)c3cccc(/C=C/C(=O)OCC(F)(F)F)c3)cc2)cc1` [86.6, (E)-2,2,2-Trifluoroethyl 3-(3-(N-((4′-(dimethylamino)-[1,1′-biphenyl]-4-yl)methyl)cyclohexanecarboxamido)phenyl) acrylate] showed an EC50 of 1 to 10 µM.
